Like-named read-outs stand apart in the source and are kept apart here.
What was measured:
[1] = cited from earlier work
[2] = cited from earlier work; for pMn: [Mn^2+] = [L] = 10 μM at pH = 7.4
[3] = Transmetalation (dissociation) kinetics of the Mn(II) complexes with Cu2+; format: physicochemical; settings: 0.15 M NaCl, 25 °C
Procedure: There is a wide consensus among the coordination chemistry community that kinetic inertness is more important for the safe use of metal complexes for imaging applications than thermodynamic stability.[8],[49],[50] Thus, we conducted a detailed investigation of the transmetalation kinetics of the Mn-PYAN and Mn-CHXPYAN complexes, by following their exchange reactions with Cu^2+ in the pH range of 2.5–4.5 (eq 3). [drawing 3] 3
All reactions were carried out in the presence of a large excess of Cu^2+ in order to guarantee the pseudo-first-order kinetic conditions. The transmetalation of Mn-PYAN in the pH range ∼2.0–4.5 is very fast, and thus the rates of the reactions were measured using the stopped-flow technique. Conversely, the exchange reactions of the Mn-CHXPYAN complex are slow and could be studied by using conventional methods. The transmetalation reactions of Mn-PYAN and Mn-CHXPYAN were monitored by following the formation of the corresponding Cu(II) complexes at 295 nm.
The kd values increase upon increase in [H^+] and are independent of the concentration of Cu^2+ as it was found for Mn-PCTA, Mn-PC3AM, and Mn-bispidine complexes.[49],[51] […] The increase in the kd values with increasing H^+ concentration can be interpreted in terms of the extremely slow spontaneous (k0, eq 4) and the proton-assisted (k*[Mn(HL), eq 6) dissociation of Mn(II) complexes. The saturation behavior of the plots of kd versus [H^+] (Figure 5) is characteristic for the equilibrium formation and the accumulation of the *[Mn(HL)] intermediate characterized by the *KH protonation constant (eq 5). The analysis of the rate constants obtained for Mn-CHXPYAN indicates a second-order dependence of kd on [H^+], which can be explained by the proton-assisted dissociation of the *[Mn(HL)] intermediate (k^H*[Mn(HL)], eq 7). [drawing 4] 4 [drawing 5] 5 [drawing 6] 6 [drawing 7] 7
In the presence of excess of the exchanging ion, the transmetalation can be treated as a pseudo-first-order process, and the rate of reactions can be expressed with eq 8, where kd is a pseudo-first-order rate constant and [MnL]t is the total concentration of the complex. [drawing 8] 8
Through consideration of all the possible pathways, the rate of the transmetalation of Mn-PYAN and Mn-CHXPYAN with Cu^2+ can be expressed by eq 9 [drawing 9] 9 Considering the total concentration of the Mn(II) complex ([MnL]t = [MnL] + [*Mn(HL)], as well as the equation defining the protonation constant for the formation of the *[Mn(HL)] intermediate (eq 5) and eq 8, the pseudo-first-order rate constant can be expressed as follows [drawing 10] 10 where k1 = k*[Mn(HL)] × *KH and k2 = k^H*[Mn(HL)] × *KH. The rate and protonation constants characterizing the transmetalation of Mn-PYAN and Mn-CHXPYAN with Cu^2+ have been calculated by fitting the kd values presented in Figure 5 to eq 10 and the values obtained are compared with the corresponding values of Mn-DOTA, Mn-DO3A, Mn-PCTA, Mn-PC3AM^H, and Mn-bispidine in Table 3.
Rates of the metal exchange reactions of Mn-PYAN and Mn-CHXPYAN with Cu^2+ were measured by spectrophotometry by following the formation of the related Cu(II) complexes at 295 nm with an Applied Photophysics DX-17MV stopped-flow instrument and PerkinElmer Lambda 365 UV–vis spectrophotometer using 1.0 cm cells, respectively. The concentration of Mn-PYAN and Mn-CHXPYAN was 1.0 × 10^–4 M, whereas the concentration of Cu^2+ was 10 and 20 times higher in order to guarantee pseudo-first-order conditions. The temperature was maintained at 25 °C and the ionic strength of the solutions was kept constant with 0.15 M NaCl. The exchange rates were studied in the pH range of ca. 2.0–4.5. To keep the pH values constant, monochloroacetic acid (pH range 2.0–3.3), 1,4-dimethylpiperazine (pH range 3.3–4.1), and N-methylpiperazine (pH range 4.1–4.5) buffers were used (0.01 M). […]

[4] = pH-potentiometric titrations, stability constants of the Mn(II) complexes; format: physicochemical; settings: 0.15 M NaCl, 25°C
Procedure: The stability constants of the Mn(II) complexes with PYAN and CHXPYAN defined by eq 2 were also determined through pH-potentiometric titrations. [drawing 2] 2
(§1) The protonation constants of PYAN and CHXPYAN and the stability constants of Mn(II) complexes were determined by pH-potentiometric titrations. The metal-to-ligand concentration ratio was 1:1 (the concentration of the ligand was generally 0.002 M). For the pH measurements and titrations, a Metrohm 888 Titrando titration workstation and Metrohm-6.0234.110 combined electrode was used. Equilibrium measurements were carried out at a constant ionic strength (0.15 M NaCl) in 6 mL samples at 25 °C. The solutions were stirred, and N2 was bubbled through them. The titrations were made in the pH range of 1.7–12.0. KH-phthalate (pH = 4.005) and borax (pH = 9.177) buffers were used to calibrate the pH meter. For the calculation of [H^+] from the measured pH values, the method proposed by Irving et al. was used as follows.[59] A 0.01 M HCl solution was titrated with a standardized NaOH solution at 0.15 M NaCl ionic strength. The differences (A) between the measured (pHread) and calculated pH (−log[H^+]) values were used to obtain the equilibrium H^+ concentration from the pH values measured in the titration experiments (A = 0.04). For the equilibrium calculations, the stoichiometric water ionic product (pKw) was also needed to calculate the [OH^–] values under basic conditions. The VNaOH – pHread data pairs of the HCl–NaOH titration obtained in the pH range of 10.5–12.0 were used to calculate the pKw value (pKw = 13.77). The protonation and stability constants were calculated with the PSEQUAD program.[60]

[5] = pH-potentiometric titrations, ligand protonation constants; format: physicochemical; settings: 0.15 M NaCl, 25°C
Procedure: Chelator protonation constants (log Ki^H) defined by eq 1 were determined using pH-potentiometric titrations, which afforded four protonation constants for each chelator attributed to the protonation of the amine N atoms (Table 2, and standard deviations are shown in parentheses). [drawing 1] 1 where i = 1, 2...4. The first two protonation constants adopt nearly identical values for both chelators, while the third and fourth protonation constants are much lower for CHXPYAN than for PYAN, which is consistent with the results obtained by Jackels et al.[25] The high rigidity of CHXPYAN likely forces the protonated amines to be placed at a shorter distance than in PYAN, reducing the values of log K3^H and log K4^H for the cyclohexyl derivative due to electrostatic effects. […] The structurally related 18-membered macrocycle 18-ane-N6 is characterized by a higher basicity compared with PYAN and CHXPYAN, as expected due to the increased number of amine N atoms and its higher flexibility.[43]
as §1

[6] = cited from earlier work; remark: listed apart in the source
[7] = Ex vivo biodistribution after PET/CT; format: in vivo, mice
Procedure: [^52Mn]Mn-CHXPYAN and [^52Mn]Mn-PYAN radiocomplexes were evaluated in vivo through 90 min dynamic PET/CT imaging of heathy mice followed by an ex vivo biodistribution analysis. Similarly, [^52Mn]MnCl2 was also studied as a control.
[^52Mn]Mn-CHXPYAN and [^52Mn]Mn-PYAN were synthesized with molar specific activities of 80 and 60 MBq/μmol, respectively. 1.04 ± 0.07 MBq (28 ± 2 μCi) of the radiocomplexes in 100 μL injection doses was prepared. The mice (n = 4 per group) were anesthetized with 2.5% isoflurane in oxygen and were injected via the retroorbital sinus. For comparison purposes, 1.04 ± 0.07 MBq (28 ± 2 μCi) of [^52Mn]MnCl2, pH 7 was also injected. After injection, mice were imaged on a Sofie GNEXT PET/CT scanner for a 90 min dynamic scan (9 frames of 10 min each) followed by a 3 min CT at 80 kVp for anatomical reference. PET images were reconstructed via 3D-OSEM (Ordered Subset Expectation Maximization) algorithm (24 subsets and 3 iterations), with random, attenuation, and decay correction, and CT was reconstructed with the modified Feldkamp algorithm and analyzed using VivoQuant 4.0 (Invicro Imaging Service and Software, Boston MA) software. After imaging, mice were euthanized, and organs were collected, weighed, and counted for associated radioactivity on an automated gamma counter. Radioactivity uptake was calculated as the percent injected dose per gram of tissue (% ID/g). Following the reconstruction of the images, ROIs (heart, liver, kidneys, muscle, and bone) were hand-drawn to determine the SUVs using the VivoQuant imaging software.

[8] = mice; cited from earlier work
[9] = Mn(II) complex, 0.15 M NaCl, 25 °C
[10] = Mn(II) complex, 0.1 M Me4NCl, 25 °C
[11] = healthy mice, 1.5 h postinjection, mean ± SD, n = 4

C1CNCCNCCNCCNCCNCCN1 [18-ane-N6, 1,4,7,10,13,16-Hexa-Azacyclo-Octadecane, reference compound]
log K1^H ([1]; 0.2 M NaClO4, 25°C): 10.19
log K2^H ([1]; 0.2 M NaClO4, 25°C): 9.23
log K3^H ([1]; 0.2 M NaClO4, 25°C): 8.73
log K4^H ([1]; 0.2 M NaClO4, 25°C): 4.09
log K5^H ([1]; 0.2 M NaClO4, 25°C): 2
log K6^H ([1]; 0.2 M NaClO4, 25°C): <1
log KMnL ([2]; 0.2 M NaClO4, 25°C): 10.5
pMn ([2]; 0.2 M NaClO4): 5.05

c1cc2nc(c1)CN[C@@H]1CCCC[C@H]1NCc1cccc(n1)CN[C@@H]1CCCC[C@H]1NC2 [CHXPYAN, (4^1R,4^2R,10^1R,10^2R)-3,5,9,11-tetraaza-1,7(2,6)-dipyridina-4,10(1,2)-dicyclohexanacyclododecaphane]
log K1^H ([1]; 0.2 M KNO3): 9.25
log K2^H ([1]; 0.2 M KNO3): 8.57
log K3^H ([1]; 0.2 M KNO3): 4.75
log K4^H ([1]; 0.2 M KNO3): 4.03
log KMnL ([2]; 0.2 M KNO3): ~13
k1 ([3]; Mn(II) complex of the chelator): 0.23 ± 0.03 M^–1 s^–1
k2 ([3]; Mn(II) complex of the chelator): (6.4 ± 0.8) × 10^3 M^–2 s^–1
kd at pH = 7.4 ([3]; Mn(II) complex of the chelator): 9.0 × 10^–9 s^–1
log*KH ([3]; protonation constant of the *[Mn(HL)] intermediate): 3.33 (5)
pMn ([4]; pMn = −log[Mn]free when [Mn^2+] = [L] = 10 μM at pH = 7.4): 7.41
log KMnL ([4]; stability constant of the Mn(II) complex): 12.51(3)
log K1^H [5]: 9.16(2)
log K2^H [5]: 8.27(2)
log K3^H [5]: 4.55(2)
log K4^H [5]: 2.54(3)

O=C(O)CN1CCNCCN(CC(=O)O)CCN(CC(=O)O)CC1 [DO3A^3–, 1,4,7,10-tetraazacyclododecane-1,4,7-triacetate]
k1 [6, 9]: 0.45 M^–1 s^–1
k2 [6, 9]: 3.2 × 10^2 M^–2 s^–1
kd at pH = 7.4 [6, 9]: 1.8 × 10^–8 s^–1

O=C(O)CN1CCN(CC(=O)O)CCN(CC(=O)O)CCN(CC(=O)O)CC1 [DOTA^4–, 1,4,7,10-tetraazacyclododecane-1,4,7,10-tetraacetate]
k0 ([6]; Mn(II) complex of the chelator, 0.1 M Me4NCl, 25 °C): 1.8 × 10^–7 s^–1
kd at pH = 7.4 ([6]; Mn(II) complex, 0.1 M Me4NCl, 25 °C, calculated using a Zn^2+ concentration of 10^–5 M): 1.8 × 10^–7 ^a s^–1
k1 [6, 10]: 4.0 × 10^–2 M^–1 s^–1
k2 [6, 10]: 1.6 × 10^3 M^–2 s^–1
k3^Zn [6, 10]: 1.5 × 10^–5 M^–1 s^–1
log*KH [6, 10]: 4.26

O=C(O)CN(CCN(CC(=O)O)CC(=O)O)CCN(CC(=O)O)CC(=O)O [DTPA^5–, diethylenetriamine-N,N,N′,N″,N″-pentaacetate, reference compound]
log K1^H ([1]; 0.15 M NaCl, 25°C): 9.97
log K2^H ([1]; 0.15 M NaCl, 25°C): 8.40
log K3^H ([1]; 0.15 M NaCl, 25°C): 4.18
log K4^H ([1]; 0.15 M NaCl, 25°C): 2.68
log K5^H ([1]; 0.15 M NaCl, 25°C): 2.01
log K6^H ([1]; 0.15 M NaCl, 25°C): 1.36
log KMnL ([2]; 0.15 M NaCl, 25°C): 14.54
pMn ([2]; 0.15 M NaCl): 7.95

O=C([O-])CN(CCN(CC(=O)[O-])CC(=O)[O-])CCN(CC(=O)[O-])CC(=O)[O-].[Mn+2] [Mn-DTPA]
time at which complex dissociation in the presence of Cu^2+ is complete (dead time of the stopped-flow technique) [6]: ≤ 2 ms

NC(=O)CN1CCN(CC(N)=O)Cc2cccc(n2)CN(CC(N)=O)CC1 [PC3AM^H]
k1 [6, 9]: 1.7 × 10^–2 M^–1 s^–1
kd at pH = 7.4 [6, 9]: 4.3 × 10^–10 s^–1

[52Mn+2].[Cl-].[Cl-] [[^52Mn]MnCl2, reference compound]
Biodistribution, Blood [7, 11]: 0.60 ± 0.11 % ID/g
Biodistribution, Brain [7, 11]: 0.54 ± 0.26 % ID/g
Biodistribution, Fat [7, 11]: 1.12 ± 0.53 % ID/g
Biodistribution, Femur [7, 11]: 2.42 ± 0.36 % ID/g
Biodistribution, Heart [7, 11]: 12.14 ± 7.31 % ID/g
Biodistribution, Kidney [7, 11]: 38.14 ± 6.06 % ID/g
Biodistribution, Liver [7, 11]: 13.00 ± 6.07 % ID/g
Biodistribution, Muscle [7, 11]: 0.25 ± 0.13 % ID/g
Biodistribution, Skin [7, 11]: 0.31 ± 0.11 % ID/g
Biodistribution, Spleen [7, 11]: 4.83 ± 2.04 % ID/g
Biodistribution, Stomach [7, 11]: 4.78 ± 3.02 % ID/g
Biodistribution, L. Intestine ([7]; mouse, in vivo, 1.5 h): 6.48 ± 1.56 % ID/g
Biodistribution, S. Intestine ([7]; mouse, in vivo, 1.5 h): 14.23 ± 5.70 % ID/g
uptake, heart [8]: 16.01 ± 0.1 % ID/g
uptake, kidney [8]: 29.9 ± 9.6 % ID/g
uptake, liver [8]: 9.6 ± 1.9 % ID/g
uptake, pancreas [8]: 4.1 ± 1.1 % ID/g
uptake, spleen [8]: 4.2 ± 0.6 % ID/g
